Experimental data from patent publication US20080234262A1 (Wyeth, priority 2007, published 2008).
Where two headings read alike, the source gives them in different places.

Key:
breast line MDA468 = experiment: In vitro cell culture growth assay (MTS), MDA468; format: cell-based, human; conditions: MDA468 cells, three days after drug treatment
Outline: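 MDA468 or LNCap cells received inhibitors one day after plating and were grown for three days. Viable cell density read by MTS conversion, absorbance 490 nm, expressed as percent of control growth versus vehicle-treated cells on the same plate.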

PI3K = PI3K (Homo sapiens, UniProt P42336); experiment: Fluorescence polarization assay for PI3K; format: biochemical;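 also: PI3K kinase reaction on PIP2 with ATP, 30-60 min, product sensed by GST-GRP with red probe in fluorescence polarization (mP), controls without enzyme and at zero time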
PI3K, sequence (P42336 whole entry): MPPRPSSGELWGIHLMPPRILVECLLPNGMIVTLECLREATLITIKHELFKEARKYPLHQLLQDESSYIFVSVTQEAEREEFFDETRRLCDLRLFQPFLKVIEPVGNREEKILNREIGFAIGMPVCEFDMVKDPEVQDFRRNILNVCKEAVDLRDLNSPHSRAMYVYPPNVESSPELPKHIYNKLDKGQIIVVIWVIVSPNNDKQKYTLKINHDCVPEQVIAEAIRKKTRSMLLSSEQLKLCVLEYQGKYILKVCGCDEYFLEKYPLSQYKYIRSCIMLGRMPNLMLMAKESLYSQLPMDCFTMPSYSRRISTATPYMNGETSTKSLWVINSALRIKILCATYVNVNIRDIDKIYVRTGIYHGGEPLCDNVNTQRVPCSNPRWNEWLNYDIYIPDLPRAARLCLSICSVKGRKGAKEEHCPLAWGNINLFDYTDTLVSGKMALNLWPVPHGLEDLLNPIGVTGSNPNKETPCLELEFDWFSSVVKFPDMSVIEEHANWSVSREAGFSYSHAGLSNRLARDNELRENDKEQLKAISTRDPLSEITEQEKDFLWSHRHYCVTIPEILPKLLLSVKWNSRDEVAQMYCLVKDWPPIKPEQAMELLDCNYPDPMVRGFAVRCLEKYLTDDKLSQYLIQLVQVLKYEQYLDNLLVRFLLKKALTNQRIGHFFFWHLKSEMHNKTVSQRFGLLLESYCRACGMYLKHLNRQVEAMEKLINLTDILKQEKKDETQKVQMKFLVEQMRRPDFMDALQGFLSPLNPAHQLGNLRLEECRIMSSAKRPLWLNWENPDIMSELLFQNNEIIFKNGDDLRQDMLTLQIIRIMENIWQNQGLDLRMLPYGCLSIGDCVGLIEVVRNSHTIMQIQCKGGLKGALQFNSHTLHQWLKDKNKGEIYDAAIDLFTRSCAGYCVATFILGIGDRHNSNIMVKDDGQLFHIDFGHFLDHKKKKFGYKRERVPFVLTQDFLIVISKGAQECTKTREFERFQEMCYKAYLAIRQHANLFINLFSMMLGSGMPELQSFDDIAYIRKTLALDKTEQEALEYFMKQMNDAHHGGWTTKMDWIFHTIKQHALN
PI3K, sequence (P27986 whole entry partner): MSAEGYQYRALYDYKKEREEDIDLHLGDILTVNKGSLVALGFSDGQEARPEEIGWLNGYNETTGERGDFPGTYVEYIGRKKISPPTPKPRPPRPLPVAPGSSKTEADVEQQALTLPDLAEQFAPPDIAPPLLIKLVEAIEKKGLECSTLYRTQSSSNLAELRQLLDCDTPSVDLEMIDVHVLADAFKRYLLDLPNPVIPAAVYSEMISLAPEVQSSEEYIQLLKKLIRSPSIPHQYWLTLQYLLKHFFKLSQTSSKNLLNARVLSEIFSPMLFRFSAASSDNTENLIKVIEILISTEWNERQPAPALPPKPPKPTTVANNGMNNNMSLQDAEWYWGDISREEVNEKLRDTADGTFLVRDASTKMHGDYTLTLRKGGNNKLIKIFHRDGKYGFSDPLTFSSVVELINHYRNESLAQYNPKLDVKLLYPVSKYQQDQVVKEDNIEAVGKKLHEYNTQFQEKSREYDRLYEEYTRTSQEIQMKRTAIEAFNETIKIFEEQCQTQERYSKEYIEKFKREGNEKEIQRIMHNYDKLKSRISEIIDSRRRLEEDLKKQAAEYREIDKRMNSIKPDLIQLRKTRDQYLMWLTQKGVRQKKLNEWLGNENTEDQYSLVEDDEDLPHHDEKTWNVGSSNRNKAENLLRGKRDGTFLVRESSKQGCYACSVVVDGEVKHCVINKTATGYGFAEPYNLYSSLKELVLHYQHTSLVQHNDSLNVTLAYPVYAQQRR

prostate line LNCap = experiment: In vitro cell culture growth assay (MTS), LNCap; format: cell-based, human; conditions: LNCap cells, three days after drug treatment

| Compound | IC50 (breast line MDA468; Homo sapiens, 72 h) [nM] | IC50 (PI3K; PI3Kα, read-out: PI3Kα IC50) [nM] | IC50 (prostate line LNCap; Homo sapiens, LNCaP, 72 h) [nM] | IC50 (PI3K; PI3Kα IC50, PI3Kα) [nM] | IC50 (prostate line LNCap; Homo sapiens, 72 h) [nM] | IC50 (breast line MDA468) [nM] | IC50 (prostate line LNCap) [nM] |
| --- | --- | --- | --- | --- | --- | --- | --- |
| CC(C)(C)OC(=O)N1CCC(n2ncc3c(N4CCOCC4)nc(-c4ccc(NC(=O)Nc5cnccn5)cc4)nc32)CC1 [Compound 885, tert-butyl 4-(4-morpholin-4-yl-6-{4-[(pyrazin-2-ylcarbamoyl)amino]phenyl}-1H-pyrazolo[3,4-d]pyrimidin-1-yl)piperidine-1-carboxylate] | 24000 | 716 | 7300 |  |  |  |  |
| COC(=O)N1CCC(n2ncc3c(N4CCOCC4)nc(-c4ccc(NC(=O)Oc5ccccc5)cc4)nc32)CC1 [Compound 945, methyl 4-(4-morpholin-4-yl-6-{4-[(phenoxycarbonyl)amino]phenyl}-1H-pyrazolo[3,4-d]pyrimidin-1-yl)piperidine-1-carboxylate] | 20000 |  |  | > 10000 | 5000 |  |  |
| CC(C)(C)OC(=O)N1CCC(n2ncc3c(N4CCOCC4)nc(-c4ccc(NC(=O)Nc5ccon5)cc4)nc32)CC1 [Compound 882, tert-butyl 4-(6-{4-[(isoxazol-3-ylcarbamoyl)amino]phenyl}-4-morpholin-4-yl-1H-pyrazolo[3,4-d]pyrimidin-1-yl)piperidine-1-carboxylate] | 490 | 113 | 70 |  |  |  |  |
| c1ccc(CN2CCC(n3ncc4c(N5CCOCC5)nc(-c5cccc6[nH]ccc56)nc43)CC2)cc1 [Example 59] | 2600 | 239 | 500 |  |  |  |  |
| CC(C)(C)C(=O)Nc1ccc(-c2nc(N3CCOCC3)c3cnn(C4CCN(Cc5ccccc5)CC4)c3n2)cc1 [Compound 187] | 40000 | 7770 | 35000 |  |  |  |  |
| c1ccc(-n2ncc3c(N4CCOCC4)nc(-c4ccc(N5CCOCC5)nc4)nc32)cc1 [Compound 131] | 60000 | 1100 | 60000 |  |  |  |  |
| CNC(=O)Nc1ccc(-c2nc(N3CCOCC3)c3cnn(C4CCN(Cc5cncc(F)c5)CC4)c3n2)cc1 [Example 392, 1-[4-(1-{1-[(5-fluoropyridin-3-yl)methyl]piperidin-4-yl}-4-morpholin-4-yl-1H-pyrazolo[3,4-d]pyrimidin-6-yl)phenyl]-3-methylurea] | 600 | 153 | 110 |  |  |  |  |
| CNC(=O)Nc1ccc(-c2nc(N3CCOCC3)c3cnn(C4CCN(C(=O)c5ccccc5Cl)CC4)c3n2)cc1 [Compound 601, 1-(4-{1-[1-(2-chlorobenzoyl)piperidin-4-yl]-4-morpholin-4-yl-1H-pyrazolo[3,4-d]pyrimidin-6-yl}phenyl)-3-methylurea] | < 27 | 79 | < 27 |  |  |  |  |
| CNC(=O)Nc1ccc(-c2nc(N3CCOCC3)c3cnn(C4CCN(C(=O)c5ccc(C)nc5)CC4)c3n2)cc1 [Example 420, 1-methyl-3-[4-(1-{1-[(6-methylpyridin-3-yl)carbonyl]piperidin-4-yl}-4-morpholin-4-yl-1H-pyrazolo[3,4-d]pyrimidin-6-yl)phenyl]urea] | 300 | 119 | 330 |  |  |  |  |
| O=C(Nc1ccc(-c2nc(N3CCOCC3)c3cnn(C4CCN(Cc5cccnc5)CC4)c3n2)cc1)NC1CC1 [Example 405, 1-cyclopropyl-3-(4-{4-morpholin-4-yl-1-[1-(pyridin-3-ylmethyl)piperidin-4-yl]-1H-pyrazolo[3,4-d]pyrimidin-6-yl}phenyl)urea] | 100 | 438 | 27 |  |  |  |  |
| COC(=O)Nc1ccc(-c2nc(N3CCOCC3)c3cnn(C4CCN(C(=O)OC(C)(C)C)CC4)c3n2)cc1 [Compound 772, tert-butyl 4-(6-{4-[(methoxycarbonyl)amino]phenyl}-4-morpholin-4-yl-1H-pyrazolo[3,4-d]pyrimidin-1-yl)piperidine-1-carboxylate] | 5500 | 5030 | 1300 |  |  |  |  |
| Nc1ccc(-c2nc(N3CCOCC3)c3cnn(C4CCN(CCCCO)CC4)c3n2)cc1 [Compound 749, 4-{4-[6-(4-aminophenyl)-4-morpholin-4-yl-1H-pyrazolo[3,4-d]pyrimidin-1-yl]piperidin-1-yl}butan-1-ol] | 30000 | 4230 | 12000 |  |  |  |  |
| CN(C)CC(=O)Nc1ccc(-c2nc(N3CCOCC3)c3cnn(C4CCCCO4)c3n2)cc1 (stereo not drawn) [Compound 275] | 40000 | 9000 | 12000 |  |  |  |  |
| COC(=O)N1CCC(n2ncc3c(N4CCOC(C)C4)nc(-c4ccc(NC(=O)Nc5ccccn5)cc4)nc32)CC1 (stereo not drawn) [Compound 847, methyl 4-[4-(2-methylmorpholin-4-yl)-6-{4-[(pyridin-2-ylcarbamoyl)amino]phenyl}-1H-pyrazolo[3,4-d]pyrimidin-1-yl]piperidine-1-carboxylate] | 15000 | 8320 | 13000 |  |  |  |  |
| CNC(=O)Nc1ccc(-c2nc(N3CCOCC3)c3cnn(C4CCN(C(=O)c5ccc(F)nc5)CC4)c3n2)cc1 [Example 421, 1-[4-(1-{1-[(6-fluoropyridin-3-yl)carbonyl]piperidin-4-yl}-4-morpholin-4-yl-1H-pyrazolo[3,4-d]pyrimidin-6-yl)phenyl]-3-methylurea] | 300 | 100 | 250 |  |  |  |  |
| O=C(Nc1ccccc1)Nc1ccc(-c2nc(N3CCOCC3)c3cnn(C4CCN(Cc5cccnc5)CC4)c3n2)cc1F [Compound 598, 1-(2-fluoro-4-{4-morpholin-4-yl-1-[1-(pyridin-3-ylmethyl)piperidin-4-yl]-1H-pyrazolo[3,4-d]pyrimidin-6-yl}phenyl)-3-phenylurea] | 360 | 41 | 70 |  |  |  |  |
| CNC(=O)Nc1ccc(-c2nc(N3CCOCC3)c3cnn([C@@H]4CCCN(C(=O)OC(C)(C)C)C4)c3n2)cc1 [Compound 874, tert-butyl (3R)-3-(6-{4-[(methylcarbamoyl)amino]phenyl}-4-morpholin-4-yl-1H-pyrazolo[3,4-d]pyrimidin-1-yl)piperidine-1-carboxylate] | 1100 | 294 | 400 |  |  |  |  |
| c1ccc(-n2ncc3c(N4CCOCC4)nc(-c4ccc5sccc5c4)nc32)cc1 [Compound 105] | 60000 | 3080 | 60000 |  |  |  |  |
| CNC(=O)Nc1ccc(-c2nc(N3CCOCC3)c3cnn(C4CCN(CC(=O)c5ccccc5)CC4)c3n2)cc1 [Example 333, 1-methyl-3-(4-{4-morpholin-4-yl-1-[1-(2-oxo-2-phenylethyl)piperidin-4-yl]-1H-pyrazolo[3,4-d]pyrimidin-6-yl}phenyl)urea] | 200 | 23 | 27 |  |  |  |  |
| CNC(=O)Nc1ccc(-c2nc(N3CCOCC3)c3cnn(C4CCN(C(=O)c5ccccc5OC)CC4)c3n2)cc1 [Example 365, 1-(4-{1-[1-(2-methoxybenzoyl)piperidin-4-yl]-4-morpholin-4-yl-1H-pyrazolo[3,4-d]pyrimidin-6-yl}phenyl)-3-methylurea] | 300 | 82 | 27 |  |  |  |  |
| COc1ncccc1CN1CCC(n2ncc3c(N4CCOCC4)nc(-c4ccc5[nH]ccc5c4)nc32)CC1 [Compound 177] | 3100 | 885 | 1300 |  |  |  |  |
| CC(C)OC(=O)N1CCC(n2ncc3c(N4CCOCC4)nc(-c4ccc(NC(=O)Nc5ccccc5)cc4)nc32)CC1 [Compound 836, isopropyl 4-(6-{4-[(anilinocarbonyl)amino]phenyl}-4-morpholin-4-yl-1H-pyrazolo[3,4-d]pyrimidin-1-yl)piperidine-1-carboxylate] | 170 | 56 | 58 |  |  |  |  |
| CN(C)CC(=O)Nc1ccc(-c2nc(N3CCOCC3)c3cn[nH]c3n2)cc1 [Compound 281, N~2~,N~2~-dimethyl-N-[4-(4-morpholin-4-yl-1H-pyrazolo[3,4-d]pyrimidin-6-yl)phenyl]glycinamide] | 18000 | 2270 | 7000 |  |  |  |  |
| CNC(=O)Nc1ccc(-c2nc(N3CCOCC3)c3cnn(C4CCN(Cc5ccc(Cl)nc5)CC4)c3n2)cc1 [Compound 633, 1-[4-(1-{1-[(6-chloropyridin-3-yl)methyl]piperidin-4-yl}-4-morpholin-4-yl-1H-pyrazolo[3,4-d]pyrimidin-6-yl)phenyl]-3-methylurea] |  | 47 |  |  |  | 48 | < 27 |
| CC(C)(C)OC(=O)N1CCC(n2ncc3c(N4CCOCC4)nc(-c4ccc(NC(=O)Nc5ccc(F)nc5)cc4)nc32)CC1 [Compound 952, tert-butyl 4-[6-(4-{[(6-fluoropyridin-3-yl)carbamoyl]amino}phenyl)-4-morpholin-4-yl-1H-pyrazolo[3,4-d]pyrimidin-1-yl]piperidine-1-carboxylate] | 750 | 130 | 60 |  |  |  |  |
| CNC(=O)Nc1ccc(-c2nc(N3CCOCC3)c3cnn(C4CCN(C(=O)c5cccnc5C)CC4)c3n2)cc1 [Example 329, 1-methyl-3-[4-(1-{1-[(2-methylpyridin-3-yl)carbonyl]piperidin-4-yl}-4-morpholin-4-yl-1H-pyrazolo[3,4-d]pyrimidin-6-yl)phenyl]urea] | 900 | 216 | 250 |  |  |  |  |
| O=C(NCCO)Nc1ccc(-c2nc(N3CCOCC3)c3cnn(C4CCN(Cc5cccnc5)CC4)c3n2)cc1 [Example 316, 1-(2-hydroxyethyl)-3-(4-{4-morpholin-4-yl-1-[1-(pyridin-3-ylmethyl)piperidin-4-yl]-1H-pyrazolo[3,4-d]pyrimidin-6-yl}phenyl)urea] | 600 | 163 | 500 |  |  |  |  |
| COCCN1CCC(n2ncc3c(N4CCOCC4)nc(-c4ccc5[nH]ccc5c4)nc32)CC1 [Compound 241, 6-(1H-indol-5-yl)-1-[1-(2-methoxyethyl)piperidin-4-yl]-4-morpholin-4-yl-1H-pyrazolo[3,4-d]pyrimidine] | 4200 | 5000 | 2400 |  |  |  |  |
